Legend:
Format in all cases: in vivo
[1] = test system: rats in conflict situation; test: Conflict situation model of Vogel, ethanol in drinking bowl; conditions: solution in the drinking bowl, mixture 10:1 volumetric ratio
Experimental: Anxiolytic effect was evaluated in accordance with the number of punished water intakes.

[2] = test system: patients suffering from definite rheumatoid arthritis (oligoarthritis); test: Clinical trial in rheumatoid arthritis (oligoarthritis), duration of effect of hydrocortisone injections; conditions: 20 patients, hydrocortisone 20-25 mg peri- or intra-articular; activated form per os over 8 weeks
Experimental: Twenty patients suffering from definite rheumatoid arthritis (oligoarthritis) necessitating peri- or intra-articular injections of hydrocortisone were included in the clinical trial of influences of activated form (ultra-low doses) of anti-inflammatory agent—hydrocortisone on the therapeutic activity of hydrocortisone in relation with arthritis manifestations. At baseline all patients required injections of 20-25 mg hydrocortisone 2-3 times a week (up on request). Over 8 weeks patients received activated form of hydrocortisone in ultra-low doses per orally—1 tablet for dissolution in the mouth (activated form—mixture of homeopathic dilutions C12+C30+C200, equivalent concentration 10^−24M mass concentration) together with injections. Impacts of activated form were evaluated in accordance with duration of periods, when patients were independent from hydrocortisone injections.

[3] = test system: rats in conflict situation; test: Conflict situation model of Vogel, phenazepam
Experimental: Anxiolytic activity of phenazepam was studied by conflict situation model of Vogel J., 1971 in rats. Phenazepam was applied in 1) therapeutic dose, 2) activated form or 3) combination of therapeutic dose of phenazepam and activated form of the same medication. Therapeutic doses of Phenazepam (1 mg/kg) were injected intraperitoneally; activated form containing the mixture of homeopathic dilutions C12+C30+C200, was given at 2.5 ml/kg of animal's body weight intraperitoneally; combined treatment included simultaneous injections of both forms in two different syringes. The effect was evaluated after 20 minutes following to medication injections by the quantity of punished water intakes.

[4] = test system: Rat model of adjuvant arthritis; test: Rat model of adjuvant arthritis (complete Freund's adjuvant), prednisone; conditions: rats, into the stomach; prednisone 2 mg/kg; activated form D24+D60 2.5mg/kg; combined 10:1
Experimental: Rat model of adjuvant arthritis induced by single subplantar injection of 100 μl of complete Freund's adjuvant was applied for evaluation of anti-inflammatory activity of glucocorticosteroid agent—prednisone in following treatment choices: a) therapeutic dose, b) activated (potentiated) form (ultra-low dose), c) combined treatment with therapeutic dose and activated form. Soon after the injection of complete Freund's adjuvant animals (10 rats per group) received prednisone in therapeutic dose, in activated form or their combination (control—distilled water)—for 14 days.
2 mg/kg prednisone (water solution) was given into the stomach; activated form of prednisone in ultra-low doses—mixture of homeopathic dilutions D24+D60 was injected in the form of water solution at the dose of 2.5mg/kg of animal's body weight into stomach; both forms mixed at 10:1 ratio were injected at one time during combined treatment.
Severity of inflammatory damage to each extremity (0 to 4) and overall index of arthritis severity (0 to 16) were assessed once per 1-2 days. Functional disturbances, erythema, edema and deformation of extremities were taken into account. Anti-inflammatory efficacy of the medications was evaluated in accordance with reduction of overall index of arthritis severity by the 2-3rd and 14th days of treatment.

[5] = test system: patients suffering from generalized anxiety syndrome; test: Hamilton's scale of anxiety in patients with generalized anxiety syndrome, diazepam
Text: Benzodiazepines represent reference medications for the treatment of anxious states. However, application of benzodiazepines is frequently associated with adverse effects that require dose reduction to minimal effective doses. Investigation of impacts induced by ultra-low doses of activated form of diazepam on the anxiolytic activity of therapeutic doses of diazepam was accomplished in 20 patients suffering from generalized anxiety syndrome characterized with the anxiety level consistent with at least 20 grades of Hamilton's scale of anxiety. Patients received tablets containing activated form of diazepam in ultra-low doses (homeopathic dilution C200, equivalent concentration—10^−400M mass concentration)—1 tablet 4 times a day for 14 days. Thereafter, beginning from 15th to 30th day of therapy patients were took per oral diazepam at the dose of 2 mg qid day (daily dose—8 mg) followed by administration of ultra-low doses of activated form of the very medication 4 tablets per day for 7 days and by combined treatment implicating simultaneous intake of activated form (4 tablets a day) and diazepam (8 mg per day) for 14 days. Anxiety level was evaluated by means of Hamilton's scale at baseline and after each stage of therapy.

With `CCO` [Ethanol 10%, ethanol] the “Number of punished water intakes” value [1] was 317.2 ± 41.0.

In the case of `C[C@]12CCC(=O)C=C1CC[C@@H]1[C@@H]2[C@@H](O)C[C@@]2(C)[C@H]1CC[C@]2(O)C(=O)CO` [Hydrocortisone, hydrocortisone], the “Duration effects of injections (time lag between injections "upon request")” value [2] is reported as 2.8 ± 0.3 days.

`O=C1CN=C(c2ccccc2Cl)c2cc(Br)ccc2N1` [Phenazepam, phenazepam] was tested, and the “Number of punished water intakes” value ([3]; rats, intraperitoneally, 20 minutes after injection, phenazepam 1 mg/kg, activated form 2.5 ml/kg) was 415.67 ± 113.96 and the “anxiolytic activity (in words)” value ([3]; versus control) was “possesses anxiolytic activity”.

For `C[C@]12C=CC(=O)C=C1CC[C@@H]1[C@@H]2C(=O)C[C@@]2(C)[C@H]1CC[C@]2(O)C(=O)CO` [Prednisone, prednisone], the “Arthritis severity index by 14th day of therapy” value [4] was 5.4 ± 1.7 grades and the “Arthritis severity index by the 2-3rd day of therapy” value [4] was 2.1 ± 0.4 grades.

`CN1C(=O)CN=C(c2ccccc2)c2cc(Cl)ccc21` [diazepam] was tested, and the “Overall level of anxiety in accordance with Hamilton's scale” value ([5]; 20 patients, after the stage of therapy: activated form 2 weeks, then diazepam 8 mg/day, last stage combined 14 days) was 16.2 ± 2.5 grades, the improvement versus baseline ([5]; Hamilton's scale, after the stage of therapy) was 26% and the “anxiolytic effect (in words)” value ([5]; dynamic changes in anxiety level) was “does not yield achievement of pronounced decline of anxiety”.
